Reference: publication PMC8012336, “An automated and high-throughput-screening compatible pluripotent stem cell-based test platform for developmental and reproductive toxicity assessment of small molecule compounds” (Cell Biology and Toxicology, 2020)
Converted amounts (≈) assume the structure as drawn.

Key:
[1] = Automated CellTiter-Glo luminescent cell viability (cytotoxicity) assay, 5 d; conditions: mouse
Experimental: The CellTiter-Glo® luminescent cell viability assay (Promega, Cat. No. G7573) was automated in 96-well format on the lab automation platform Fluent® (Tecan, Männedorf, Switzerland). The procedure allowed the testing of six compounds in mESC-D3 and NIH/3T3 cells in parallel. On the first day, PBS was dispensed into the peripheral wells of the assay plates (200 μl/well) using the Multiple Channel Arm (MCA). Mouse ES-D3 and NIH/3T3 cells were plated (50 μl/well, 1 × 10^4 cells/ml)) using the Flexible Channel Arm (FCA) and transported into the Cytomat™ 10 (Thermo Fisher Scientific) for incubation using the Robotic Gripper Arm (RGA). A 7-point dilution series of the test compounds and control solutions were prepared in PBS or DMSO (Carl Roth, Cat. No. HN47.1) under the laminar flow, transferred to a 96-well 0.5-ml Masterblock plate (Greiner bio-one, Cat. No. 786261) and placed on the worktable. On the Fluent the compounds were transferred to a 96-well 2-ml Masterblock plate (Greiner bio-one, Cat. No. 780271) and further diluted in growth media using the FCA. Two hours after cell plating compounds and controls were transferred to the assay plate with the FCA (150 μl/well) and transported back in the Cytomat 10. On day three of the assay, the media was exchanged using the MCA: old media was aspirated and dispensed into a 96-deep-well plate (“waste”), freshly prepared compound, and control solution was dispensed into the assay plate. After two more days of incubation, the cell viability was determined using the CellTiter-Glo assay. The assay plates were transported from the Cytomat 10 to the Carousel (Tecan) to adapt to room temperature. After 25 min the cell supernatant was removed partially (80 μl/well) and CellTiter-Glo reagent was dispensed (50 μl/well). The assay plate was placed on a shaker for 1 min and afterward incubated 25 min in the Carousel before the Luminescence signal was detected on the Infinite M1000 Pro plate reader (Tecan).
(§1) Toxicity data from the MTT and CellTiter-Glo Assay was normalized against the vehicle control (100% viability) and plotted against the logarithmic compound concentration.

[2] = Manual MTT cell viability assay, 7 d; assay type: cell-based, mouse; conditions: mouse, manual, in brackets the two individual experiments
Experimental: (§2) The MTT cell viability assay was performed as described (Seiler and Spielmann [2011]) with modifications. In brief, 96-well cell culture plates were coated with gelatin (0.1%) before plating mESC-D3. All peripheral wells of the assay plate were filled with 200 μl growth media (“blank”). Afterward, NIH/3T3 and mESC-D3 were plated in growth media (1 × 10^4 cells/ml, 50 μl/well). […] Vehicle (PBS) and positive control (5-fluorouracil) wells were also included on all assay plates. Three and 5 days after seeding the cell supernatant was replaced by freshly prepared compound solution (200 μl/well). Seven days after seeding the cell viability was detected. Therefore, the cell supernatant was aspirated from all wells, MTT solution (5 mg/ml) was added (20 μl/well) and the assay plate was incubated for 2 h at 37 °C and 5% CO2 in a humidified atmosphere. Afterward, all liquid was removed from the wells and MTT desorb solution (0.7% SDS in 2-propanol (Carl Roth, Cat. No. 9866.5), pre-warmed to 37 °C) was dispensed (130 μl/well). The assay plate was placed on a shaker for 15 min. Remaining precipitates were suspended by pipetting up and down with a multichannel pipette before measuring the absorption at 570 nm on a microtiter plate reader using 630 nm as a reference wavelength.
as §1

[3] = Manual CellTiter-Glo luminescent cell viability assay (7 d or 5 d); assay type: cell-based, mouse; conditions: mouse, in brackets the two individual experiments
Experimental: 96-well cell culture plates were coated with gelatin (0.1%) before plating mESC-D3. All peripheral wells of the assay plate were filled with 200 μl growth media. In order to assess compound toxicity on mESC-D3 and NIH/3T3 cells, cell suspensions of NIH/3T3, and mESC-D3 were prepared in growth media (1 × 10^4 cells/ml) and were transferred to all remaining wells (50 μl/well). A 7-point dilution series in growth media was prepared for each test compound and was transferred to the assay plate 2 h after cell seeding (150 μl/well). Afterward, the cells were incubated in a humidified atmosphere at 37 °C and 5% CO2. Three and 5 days after seeding the cell supernatant was replaced by freshly prepared compound solution (200 μl/well). […] The assay plate was placed on a shaker for 1 min and after another 10 min incubation at room temperature in the dark the luminescence signal was detected on a plate reader.
as §1

[4] = system: mESC-D3; assay: Conventional mouse ES-D3 differentiation assay in hanging drop format (petri dish; cardiomyocyte contraction, day 10); assay type: cell-based; conditions: manual; beating cardiomyocytes at day 10; in brackets the two individual experiments
Experimental: Separate Petri dishes were used for each concentration of test compound, untreated control, and solvent control. […] The EB suspension was incubated for 2 days. On day five of the assay, a fresh compound dilution series was prepared in media and transferred into 24-well cell culture plates (1 ml/well, Greiner bio-one, Cat. No. 662641). A separate 24-well plate was used for each compound concentration, untreated control, and solvent control (24 wells per condition). One EB was transferred from the Petri dish into each well of the 24-well plate. After further 5 days of incubation (= day 10 of the assay), cardiomyocyte contraction was determined in each well under the light microscope.

[5] = Manual human EST cytotoxicity assay, MTT, 5 d; conditions: human
Experimental: (§3) The cytotoxicity assessment with a reduced assay time of 5 days combined with either NADH- or ATP-based detection was also carried out with human induced pluripotent stem cells (hiPSCs). […] Furthermore, differences in the cytotoxicity effects between the hiPSCs and HDFfs were more pronounced than in the mouse cells. Similar to the cytotoxicity-based assay the overall variance in the data is reduced when viability data was obtained by an ATP-based read-out.
as §2
(§4) Figure S1: Step-wise evolution of the cytotoxicity assay towards the use of human cell lines. Related to Figure 2. Cytotoxicity assays were carried out with two compound sets on hiPSC line ZIPi013-E and HDFf, from which they were derived. […] A) 5 day MTT assay and manual handling. B) As in A), but using CellTiter-Glo® viability assay. All points in the graph represent the mean of 6 individual data points, including the standard error.

[6] = Manual human EST cytotoxicity assay, CellTiter-Glo, 5 d; conditions: human
Experimental: as §3
96-well cell culture plates were coated with gelatin (0.1%) before plating mESC-D3. All peripheral wells of the assay plate were filled with 200 μl growth media. In order to assess compound toxicity on mESC-D3 and NIH/3T3 cells, cell suspensions of NIH/3T3, and mESC-D3 were prepared in growth media (1 × 10^4 cells/ml) and were transferred to all remaining wells (50 μl/well). A 7-point dilution series in growth media was prepared for each test compound and was transferred to the assay plate 2 h after cell seeding (150 μl/well). Afterward, the cells were incubated in a humidified atmosphere at 37 °C and 5% CO2. Three and 5 days after seeding the cell supernatant was replaced by freshly prepared compound solution (200 μl/well). Seven days after seeding the assay plate was taken out of the incubator and located at room temperature for 10 min, before cell supernatant was aspirated (80 μl/well) and CellTiter-Glo® reagent was dispensed (50 μl/well). The assay plate was placed on a shaker for 1 min and after another 10 min incubation at room temperature in the dark the luminescence signal was detected on a plate reader.
as §4

[7] = system: mESC-D3; parameters: method as in Scholz et al. [1999]; conditions: ZEBET value, 7 d result; ref Scholz et al. [1999]; cited from earlier work
[8] = system: NIH/3T3; parameters: method as in Scholz et al. [1999]; conditions: ZEBET value, 7 d result; ref Scholz et al. [1999]; cited from earlier work
[9] = system: mESC-D3; parameters: method as in Scholz et al. [1999]; conditions: ZEBET value printed beside hanging drop differentiation result; ref Scholz et al. [1999]; cited from earlier work
[10] = system: mESC-D3 and NIH/3T3 cells; conditions: manual murine EST assay; prediction model of Seiler and Spielmann 2011
[11] = mESC-D3 cells (mouse embryonic stem cells)
[12] = NIH/3T3 cells, read-out: Cytotoxicity assay MTT, 7 d IC50 NIH/3T3
[13] = mESC-D3 cells, read-out: Cytotoxicity assay MTT, 7 d IC50 mESC-D3
[14] = NIH/3T3 cells, read-out: Cytotoxicity assay CTG, 5 d IC50 NIH/3T3
[15] = NIH/3T3 cells, read-out: Cytotoxicity assay CTG, 7 d IC50 NIH/ 3T3
[16] = mESC-D3 cells, read-out: Cytotoxicity assay CTG, 5 d IC50 mESC-D3
[17] = mESC-D3 cells, read-out: Cytotoxicity assay CTG, 7 d IC50 mESC-D3
[18] = HDFf (human dermal fibroblasts of fetal origin)

| Structure (SMILES) | IC50 at 5 d ([1]; NIH/3T3 cells) [µg/mL] | IC50 at 5 d [1, 11] [µg/mL] | IC50 at 7 d [2, 12] [µg/mL] | IC50 at 7 d [2, 13] [µg/mL] | IC50 at 5 d [3, 14] [µg/mL] | IC50 at 7 d [3, 15] [µg/mL] | IC50 at 5 d [3, 16] [µg/mL] | IC50 at 7 d [3, 17] [µg/mL] | Differentiation assay in hanging drop (petri dish) ID50 mESC-D3 [4] | IC50 at 5 d [5, 18] [µg/mL] | IC50 at 5 d ([5]; hiPSC line ZIPi013-E) [µg/mL] | IC50 at 5 d [6, 18] [µg/mL] | IC50 at 5 d ([6]; hiPSC line ZIPi013-E) [µg/mL] | IC50 mESC-D3 (ZEBET) [7] [µg/mL] | IC50 NIH/3T3 (ZEBET) [8] [µg/mL] | ID50 mESC-D3 (ZEBET) [9] [µg/mL] | Compound classification [10] |
| --- | --- | --- | --- | --- | --- | --- | --- | --- | --- | --- | --- | --- | --- | --- | --- | --- | --- |
| CC1(C)S[C@@H]2[C@H](NC(=O)Cc3ccccc3)C(=O)N2[C@H]1C(=O)O [Penicillin G, penicillin G] | > 1000 | > 1000 | > 1000 | > 1000 | 992 (≈ 2970 µM) | > 1000 | > 1000 | > 1000 | 1000 (> 1000; > 1000) µg/ml | 822 (≈ 2460 µM) | 750 (≈ 2240 µM) | 795 (≈ 2380 µM) | > 1000 | 2950 (≈ 8820 µM) | 1586 (≈ 4740 µM) | 3450 (≈ 10300 µM) | – |
| Cn1c(=O)c2c(ncn2C)n(C)c1=O [Caffeine, caffeine] | – | 138 (≈ 711 µM) | – | 152 (≈ 783 µM) | – | – | 172 (≈ 886 µM) | 119 (≈ 613 µM) | 130 (130; > 200) µg/ml | 358 (≈ 1850 µM) | 13.3 (≈ 68.3 µM) | 412 (≈ 2120 µM) | 43.6 (≈ 225 µM) | – | – | 185 (≈ 953 µM) | – |
| O=c1[nH]cc(F)c(=O)[nH]1 [5-Fluorouracil, 5-fluorouracil] | 0.11 (≈ 0.846 µM) | 0.0627 (≈ 0.482 µM) | 0.116 (≈ 0.892 µM) | 0.0395 (≈ 0.304 µM) | 0.0958 (≈ 0.736 µM) | 0.128 (≈ 0.984 µM) | 0.0493 (≈ 0.379 µM) | 0.0681 (≈ 0.524 µM) | – | 0.195 (≈ 1.5 µM) | 0.223 (≈ 1.72 µM) | 0.186 (≈ 1.43 µM) | 0.0166 (≈ 0.128 µM) | 0.103 (≈ 0.792 µM) | 0.17 (≈ 1.31 µM) | 0.0289 (≈ 0.222 µM) | strong embryotoxicity |
| C[C@@H]1C[C@H]2[C@@H]3CCC4=CC(=O)C=C[C@]4(C)[C@@]3(F)[C@@H](O)C[C@]2(C)[C@@]1(O)C(=O)CO [Dexamethasone, dexamethasone] | > 50 | 18.7 (≈ 47.6 µM) | 49.2 (≈ 125 µM) | 23.5 (≈ 59.9 µM) | 34.8 (≈ 88.7 µM) | 35.2 (≈ 89.7 µM) | 15.7 (≈ 40 µM) | 20.8 (≈ 53 µM) | 25.7 (29.1; 22.3) µg/ml | – | – | – | – | 23 (≈ 58.6 µM) | 26 (≈ 66.2 µM) | 18.3 (≈ 46.6 µM) | weak embryotoxicity |
